The values below come from PubChem BioAssay AID328 (DTP/NCI, 2004).

This assay relates to BDF1 mice, P388 leukemia ip, median survival T/C. In words: NCI In Vivo Anticancer Drug Screen. Data for tumor model P388 Leukemia (intraperitoneal) in B6D2F1 (BDF1) mice. The conditions noted are these: endpoint: median survival time, higher = longer survival. In short, it runs like this:
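Reported as T/C, where T is the survival measurement in dosed animals and C the same measurement in vehicle controls.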

Where [1] appears, read: dose: 100.0 mg/kg/injection, schedule: Q04DX003 (ip), vehicle: saline.
[2] abbreviates: dose: 200.0 mg/kg/injection, schedule: Q04DX003 (ip), vehicle: saline.
The mark [3] stands for this setting: dose: 400.0 mg/kg/injection, schedule: Q04DX003 (ip), vehicle: saline.
Where [4] appears, read: dose: 200.0 mg/kg/injection, schedule: Q04DX003 (ip), vehicle: saline with Tween-80.

Several values for one entry are separate records, joined by “and”; a condition that tells them apart may be missing. Identical values can stand only once. Inconclusive results and toxic doses are left out.

For the compound `CC[C@]1(O)C[C@H]2CN(CCc3c([nH]c4ccccc34)[C@@](C(=O)OC)(c3cc4c(cc3OC)N(C)[C@H]3[C@@](O)(C(=O)OC)[C@H](OC(C)=O)[C@]5(CC)C=CCN6CC[C@]43[C@@H]65)C2)C1`, the T/C was 185 % of control (dose: 0.03 mg/kg/injection, schedule: Q03HX024 (ip), vehicle: saline); 162 % of control (dose: 0.06 mg/kg/injection, schedule: Q03HX016 (ip), vehicle: saline); 166 % of control (dose: 0.12 mg/kg/injection, schedule: Q01DX009 (ip), vehicle: saline); 252 % of control (dose: 0.12 mg/kg/injection, schedule: Q01DX009 (ip), vehicle: water); 222 % of control (dose: 0.12 mg/kg/injection, schedule: Q03HX016 (ip), vehicle: saline); 222 % of control (dose: 0.12 mg/kg/injection, schedule: Q03HX024 (ip), vehicle: saline). In addition, the T/C is 185 % of control (dose: 0.25 mg/kg/injection, schedule: Q01DX009 (ip), vehicle: saline); 240 % of control (dose: 0.25 mg/kg/injection, schedule: Q01DX009 (ip), vehicle: water); 209 % of control (dose: 0.25 mg/kg/injection, schedule: Q01DX010 (ip), vehicle: water); 185 % of control (dose: 0.25 mg/kg/injection, schedule: Q03HX008 (ip), vehicle: saline); 214 % of control (dose: 0.25 mg/kg/injection, schedule: Q03HX016 (ip), vehicle: saline); 166 % of control (dose: 0.25 mg/kg/injection, schedule: Q04DX003 (ip), vehicle: saline). The T/C runs as follows: (dose: 0.5 mg/kg/injection, schedule: Q01DX009 (ip), vehicle: saline) 214 % of control; (dose: 0.5 mg/kg/injection, schedule: Q01DX009 (ip), vehicle: water) 222 % of control; (dose: 0.5 mg/kg/injection, schedule: Q01DX010 (ip), vehicle: water) 195 % of control; (dose: 0.5 mg/kg/injection, schedule: Q04DX003 (ip), vehicle: saline) 196 % of control; (dose: 0.5 mg/kg/injection, schedule: Q08DX002 (ip), vehicle: saline) 170 % of control; (dose: 0.65 mg/kg/injection, schedule: Q04DX003 (ip), vehicle: saline) 200 % of control. Also, the T/C runs as follows: (dose: 1.0 mg/kg/injection, schedule: Q01DX009 (ip), vehicle: saline) 92 % of control; (dose: 1.0 mg/kg/injection, schedule: Q03HX008 (ip), vehicle: saline) 200 % of control; (dose: 1.0 mg/kg/injection, schedule: Q03HX016 (ip), vehicle: saline) 96 % of control; (dose: 1.0 mg/kg/injection, schedule: Q04DX003 (ip), vehicle: saline) 214 % of control; (dose: 1.0 mg/kg/injection, schedule: Q08DX002 (ip), vehicle: saline) 188 % of control; (dose: 1.08 mg/kg/injection, schedule: Q04DX003 (ip), vehicle: saline) 193 % of control. Also, the T/C by setting is: (dose: 1.8 mg/kg/injection, schedule: Q04DX003 (ip), vehicle: saline) 234 % of control; (dose: 2.0 mg/kg/injection, schedule: Q01DX001 (ip), vehicle: saline) 162 % of control; (dose: 2.0 mg/kg/injection, schedule: Q01DX001 (ip), vehicle: water) 150 % of control; (dose: 2.0 mg/kg/injection, schedule: Q04DX003 (ip), vehicle: saline) 96 % of control; (dose: 2.0 mg/kg/injection, schedule: Q08DX002 (ip), vehicle: saline) 214 % of control; (dose: 3.0 mg/kg/injection, schedule: Q04DX003 (ip), vehicle: saline) 95 % of control. Besides, the T/C was 185 % of control (dose: 4.0 mg/kg/injection, schedule: Q01DX001 (ip), vehicle: saline); 161 % of control (dose: 4.0 mg/kg/injection, schedule: Q01DX001 (ip), vehicle: water); 100 % of control (dose: 4.0 mg/kg/injection, schedule: Q08DX002 (ip), vehicle: saline); 177 % of control (dose: 8.0 mg/kg/injection, schedule: Q01DX001 (ip), vehicle: saline); 96 % of control (dose: 8.0 mg/kg/injection, schedule: Q08DX002 (ip), vehicle: saline); 188 % of control (dose: 16.0 mg/kg/injection, schedule: Q01DX001 (ip), vehicle: saline). Besides, the T/C (dose: 625.0 micrograms/kg/injection, schedule: Q04DX003 (ip), vehicle: saline) was 200 % of control; the T/C (dose: 648.0 micrograms/kg/injection, schedule: Q04DX003 (ip), vehicle: saline) was 180 % of control; the T/C (dose: 1080.0 micrograms/kg/injection, schedule: Q04DX003 (ip), vehicle: saline) is 195 % of control; the T/C (dose: 1250.0 micrograms/kg/injection, schedule: Q04DX003 (ip), vehicle: saline) is 238 % of control; the T/C (dose: 1800.0 micrograms/kg/injection, schedule: Q04DX003 (ip), vehicle: saline) was 190 % of control; the T/C (dose: 2500.0 micrograms/kg/injection, schedule: Q04DX003 (ip), vehicle: saline) was 230 % of control.

As to `COc1cc2ccc3c(c2cc1OC)C=[N+](C)CC3`, the T/C by setting is: (dose: 50.0 mg/kg/injection, schedule: Q01DX009 (ip), vehicle: saline with Tween-80) 108 % of control; under setting [1], 118 % of control; under setting [2], 118 % of control; under setting [3], 90 % of control.

On to `S=C1SC(c2ccccc2)(c2ccccc2)c2ccccc21`, for which the T/C is 100 % of control (dose: 100.0 mg/kg/injection, schedule: Q01DX001 (ip), vehicle: saline with Tween-80); 94 % of control (dose: 200.0 mg/kg/injection, schedule: Q01DX001 (ip), vehicle: saline with Tween-80); 93 % of control (dose: 400.0 mg/kg/injection, schedule: Q01DX001 (ip), vehicle: saline with Tween-80).

Turning to `CCCCCCCCNC(=O)C1OC(n2cnc3c(N)ncnc32)C(O)C1O` (centres undefined), the T/C is 95 % of control (dose: 25.0 mg/kg/injection, schedule: Q01DX009 (ip), vehicle: saline); 90 % of control (dose: 50.0 mg/kg/injection, schedule: Q01DX009 (ip), vehicle: saline); 95 % of control and 105 % of control (dose: 100.0 mg/kg/injection, schedule: Q01DX009 (ip), vehicle: saline); 95 % of control under setting [1]; 90 % of control and 109 % of control (dose: 200.0 mg/kg/injection, schedule: Q01DX009 (ip), vehicle: saline); 105 % of control under setting [2]. For the same compound, the T/C under setting [3] is 90 % of control.

Turning to `CC(C(=O)O)c1ccccc1` (centres undefined), the T/C by setting is: (dose: 50.0 mg/kg/injection, schedule: Q01DX009 (ip), vehicle: other) 101 % of control; (dose: 100.0 mg/kg/injection, schedule: Q01DX009 (ip), vehicle: other) 106 % of control; (dose: 200.0 mg/kg/injection, schedule: Q01DX009 (ip), vehicle: other) 110 % of control.

For `CC(=O)O[C@H]1CC[C@H]2[C@@H]3CCC4=CC(=O)CC[C@]4(C)[C@H]3[C@H](OC(C)=O)C[C@]12C`, the T/C was 100 % of control (dose: 100.0 mg/kg/injection, schedule: Q04DX003 (ip), vehicle: saline with Tween-80); 95 % of control under setting [4]; 109 % of control (dose: 400.0 mg/kg/injection, schedule: Q04DX003 (ip), vehicle: saline with Tween-80).

For the compound `CN(C)c1ccc(C=O)cc1Br`, the T/C is, setting by setting: (dose: 50.0 mg/kg/injection, schedule: Q01DX009 (ip), vehicle: Klucel (hydroxypropylcellulose) (HPC)) 95 % of control; (dose: 100.0 mg/kg/injection, schedule: Q01DX009 (ip), vehicle: Klucel (hydroxypropylcellulose) (HPC)) 95 % of control; (dose: 100.0 mg/kg/injection, schedule: Q04DX003 (ip), vehicle: Klucel (hydroxypropylcellulose) (HPC)) 100 % of control; (dose: 200.0 mg/kg/injection, schedule: Q01DX009 (ip), vehicle: Klucel (hydroxypropylcellulose) (HPC)) 100 % of control; (dose: 200.0 mg/kg/injection, schedule: Q04DX003 (ip), vehicle: Klucel (hydroxypropylcellulose) (HPC)) 100 % of control; (dose: 400.0 mg/kg/injection, schedule: Q04DX003 (ip), vehicle: Klucel (hydroxypropylcellulose) (HPC)) 100 % of control.

As to `CC(NC(=O)C(N)CSC(c1ccccc1)(c1ccccc1)c1ccccc1)C(=O)O` (centres undefined), the T/C is 113 % of control (dose: 88.0 mg/kg/injection, schedule: Q04DX003 (ip), vehicle: saline with Tween-80); 122 % of control (dose: 88.0 mg/kg/injection, schedule: Q04DX003 (ip), vehicle: saline); 195 % of control under setting [4].

On to `COc1ccc(OC)c2c1C(SC)C(=O)N2C` (centres undefined), for which the T/C (dose: 50.0 mg/kg/injection, schedule: Q04DX002 (ip), vehicle: saline with Tween-80) was 100 % of control; the T/C (dose: 100.0 mg/kg/injection, schedule: Q04DX002 (ip), vehicle: saline with Tween-80) is 100 % of control; the T/C (dose: 200.0 mg/kg/injection, schedule: Q04DX002 (ip), vehicle: saline with Tween-80) is 107 % of control.
